Experimental data reported in patent US20230128609A1, “TUMOR SUPPRESSION BY MODULATION OF NON-CANONICAL AUTOPHAGY (LAP) IN MYELOID CELLS” (St. Jude Children's Research Hospital, priority 2017, published 2023).

Tested on: RAW cells expressing Venus-LC3
Test: Evaluation of LAP, as assessed by LC3-II lipidation upon zymozan stimulation, by flow cytometry
Format: cell-based
Details: RAW cells expressing Venus-LC3 stimulated with zymozan-Alexa594 (ZYM) for 1 h, treatment started 30 min prior to stimulation, digitonin-permeabilized cells
Procedure: (FIG. 9D) Evaluation of LAP, as assessed by LC3-II lipidation upon stimuli. RAW cells expressing Venus-LC3 were stimulated with ZYM for 1 h, treated with digitonin and accumulation of lipidated LC3-II in permeabilized cells was measured by flow cytometry. (FIG. 9E) Quantification of FIG. 9D, in MFI. […] Flow cytometry analysis. At the indicated time points, GFP-LC3+ cells can be collected, washed once with FACS buffer, and permeabilized with digitonin (Sigma, 200 g ml-1) for 15 min on ice. Cells can be washed 3 times with FACS buffer and analysed by flow cytometry for membrane-bound GFP—LC3—II.

| Structure (SMILES) | LAP activity in vitro (LC3-II lipidation upon stimuli) |
| --- | --- |
| c1ccc2c(c1)[I+]c1ccccc1-2 [DPI, diphenyleneiodonium] | abrogates LAP activity |
| COc1cc(C(C)=O)ccc1O [apocynin] | abrogates LAP activity |
